Assay results reported in patent publication US20130267533A1, “5HT1A AGONISTS FOR TREATMENT OF HIGH CHOLESTEROL” (FABRE-KRAMER PHARMACEUTICALS, INC., priority 2012, published 2013).
Structures can show the parent of a compound that is named as a salt. Where two headings read alike, the source gives them in different places.

What was measured:
[1] = system: subjects with Major Depression; assay: Non-fasting total cholesterol at baseline and 8 weeks in 10 clinical studies of Gepirone-ER, meta-analysis; type: in vivo, human; details: for cholesterol levels, SSRI vs placebo: paroxetine one study n=143 p=0.045, fluoxetine three studies n=295 p=0.014, FIG. 4
Experimental: In 10 clinical studies of the antidepressant effects of Gepirone-ER comprised of 2302 subjects with Major Depression safety measurements included non-fasting measurements of cholesterol at baseline and at 8 weeks (endpoint). A JMP-7 one way ANOVA of the data provided results for individual studies which were then analyzed by meta-analysis. […] So, analysis of the effect of gepirone on cholesterol levels in the 40-59 year range was conducted.

[2] = system: MDD subjects over or under 200 mg/dL cholesterol; assay: Gepirone-ER antidepressant efficacy (HAMD-17) by cholesterol level, 8 double-blind MDD studies; type: in vivo, human; details: for HAMD responders percent: responder = 50% decrease in HAMD-17
Text: The effects of cholesterol on gepirone-ER efficacy was investigated. […] As such, it was expected that the results for gepirone to be similar to that of Fava. […] Corresponding placebo values were generated as well.
The total population used was 10 times greater than the Fava Study addressed in the background section (Sonawalla S B, Papakostas G I, Petersen T J, Yeung A S, Smith M M, Sickinger A H, Gordon J, Israel J A, Tedlow J R, Lamon-Fava S, Fava M, Elevated cholesterol levels associated with nonresponse to fluoxetine treatment in major depressive disorder. Psychosomatics. 2002; 43:310-6). Using the cutoff value of 200 mg/dL, there were 1264 subjects above 200 mg/dL and 1225 subjects below. […] The respective average cholesterol levels were 234.3±29.7 and 169.9±21.2, similar to the Fava data.
The results there compared by t-test of odds ratio programs. The results for gepirone were examiner in 8 MDD studies. The low cholesterol group treated with gepirone-ER had 41.2% responders compared to the high cholesterol treated group 43.3% responders, a […] favoring the high cholesterol group (p=0.58)(Table 2). When the gepirone ER and placebo groups (Table 2) are compared, the high cholesterol gepirone treated group is 13.6% better than placebo (p=0.002), whereas the difference between the low cholesterol gepirone and placebo group is 0.5%, (p=0.602). However, the over 200 placebo group is 11% less than the under 200 placebo group (p=0.004).

depressed subjects = details: open label, cited from earlier work
[3] = Plasma levels of 3-OH gepirone after gepirone treatment; type: in vivo; details: animals and humans treated with gepirone
Text: 3-OH gepirone has the same receptor binding, therefore, it is theorized that 3-OH-gepirone accounts for at least some of the effect noted with gepirone.

[4] = system: post-synaptic receptors in the hippocampus; details: cited from earlier work
subjects with anxiety = assay: Total cholesterol in random subset of 103 subjects from adatanserin study 790-210; type: in vivo, human
Text: Adatanserin is another drug with similar properties. The studies done in adatanserin were largely done on anxiety, not depression. It was not known if the cholesterol levels in subjects with anxiety are elevated. (In the small sample studied below, the levels are not elevated). One paper in subjects with panic disorder claims that paroxetine treatment elevated plasma cholesterol (Kim E J, YU B-H, Increased Cholesterol Levels After Paroxetine Treatment in Patients with panic Disorder. J Clinical Psychopharmacol 2005; 25:597-599). However, to see if adatanserin might also have cholesterol lowering properties, the inventors of the present invention examined a random subset of 103 subjects from study 790-210.

[5] = pre-clinical tests; cited from earlier work

With `CC1(C)CC(=O)N(CCCCN2CCN(c3ncccn3)CC2)C(=O)C1` [Gepirone, 4,4-dimethyl-1-[4-[-(2-pyrimidinyl)-1-piperazinyl]-butyl]-2,6-piperidinedione hydrochloride] the “average drop in total cholesterol, meta-analysis” value ([1]; 10 studies, p=0.016, FIG. 6) was 2.8 mg/dL, the “number of studies with lower total cholesterol levels” value ([1]; of 10 studies) was 7 and the “change in cholesterol levels” value ([1]; patients in the 40-59 year range, FIG. 7) was -5 mg/dL. The “HAMD change from baseline Δ means ± SD” value ([2]; cholesterol over 200 mg/dL, n=344, p=0.001 vs placebo) was −9.58 ± 7.2, the HAMD responders percent ([2]; cholesterol over 200 mg/dL, n=344, p=0.002 vs placebo) was 43.3% and the “HAMD change from baseline Δ means ± SD” value ([2]; cholesterol under 200 mg/dL, n=354, p=0.656 vs placebo) was −9.48 ± 7.4. The HAMD responders percent ([2]; cholesterol under 200 mg/dL, n=354, p=0.602 vs placebo) was 41.2%, the “difference in responders vs placebo” value ([2]; high cholesterol group (over 200 mg/dL), p=0.002) was 13.6% and the “HAMD change from baseline, difference in means vs placebo” value ([2]; high cholesterol group, p=0.001) was −1.77 points. For the same compound, the “difference in responders vs placebo” value ([2]; low cholesterol group (under 200 mg/dL), p=0.602) was 0.5%, the “HAMD change from baseline, standard difference in means vs placebo” value ([2]; low cholesterol group, p=0.656) was −0.02 points and the “HAMD change from baseline, over vs. under Δ(Δ means)” value ([2]; over 200 vs under 200 mg/dL, p=0.856) was 0.10.

In the case of `Fc1ccc([C@@H]2CCNC[C@H]2COc2ccc3c(c2)OCO3)cc1` [paroxetine], the “cholesterol levels, SSRI vs placebo” value [1] is reported as “placebo statistically better than paroxetine”.

For `CNCCC(Oc1ccc(C(F)(F)F)cc1)c1ccccc1` (centres unmarked) [fluoxetine], the “cholesterol levels, SSRI vs placebo” value [1] is listed as “placebo statistically better then fluoxetine”, the “response rate (50% decrease from baseline HAMD-17)” value (depressed subjects; cholesterol above 200 mg/dL) is listed as 46% and the “response rate (50% decrease from baseline HAMD-17)” value (depressed subjects; cholesterol below 200 mg/dL) is listed as 54%.

In the case of `CC1(C)CC(=O)N(CCCCN2CCN(c3ncccn3)CC2)C(=O)C1O` (centres unmarked) [3-OH gepirone], the “plasma levels of metabolite relative to gepirone” value [3] is listed as “greater than that of gepirone” and the “type of agonism at post-synaptic receptors” value [4] is listed as “full agonism”.

For `O=C(NCCN1CCN(c2ncccn2)CC1)C12CC3CC(CC(C3)C1)C2` [Adatanserin, N-[2-[4-(2-pyrimidinyl)-1-piperazinyl]ethyl]tricyclo[3.3.1.1^3,7]decane-1-carboxamide], the “Difference in cholesterol change between adatanserin and placebo” value (subjects with anxiety; adatanserin n=76 vs placebo n=27, p=0.011) was 15.22 mg/dL, the “Total Cholesterol after treatment, mean (SD)” value (subjects with anxiety; n=76, after treatment) was 197.46 (44.1) mg/dL and the “Total Cholesterol at baseline, mean (SD)” value (subjects with anxiety; n=76, at baseline) was 204.46 (46.4) mg/dL. The “Change in Total Cholesterol” value (subjects with anxiety; n=76, baseline to after treatment) was -7.00 mg/dL.

In the case of `c1cnc(N2CCNCC2)nc1` [1-PP, 1-(2-pyrimidinyl)piperazine], the antidepressant-like characteristics [5] is listed as “did not exhibit antidepressant-like characteristics”.
